From US20060013804A1, “Modulation of stem cell differentiation by modulation of caspase-3 activity” (Ottawa Health Research Institute, priority 2002, published 2006)

Assays:
[1] = tested on: primary striatal stem cells (neurospheres); assay: Primary striatal neurospheres with or without caspase-3 inhibitor, immunostaining for neural lineage markers; type: cell-based, mouse; conditions: 1 μM inhibitor
Description: After sacrificing, the abdomen was sprayed with 70% ethanol. A 2 cm incision is made vertically up the abdomen. The horn was removed with sterile tweezers, and placed in PBS. The horn was cut open the horn to expose one embryo at a time and each embryo was placed in a separate 35 mm tissue culture dish containing 2 ml PBS. Each embryo was pinned to the dish and the cortex peeled off layer by layer to expose the striatum, which was then removed. The striatal tissue was placed in a 50 ml Falcon Tube containing cold Hank's Balanced Salt Solution (HBSS) on ice and the tissue allowed to settle at the bottom of the tube. The HBSS was replaced with 2 ml of Complete Neurocult Proliferation Media and the tissue triturated gently until only a few fragments of tissue remained. The supernatant was then collected and the fragments of tissue were triturated in 1 ml media. The supernatant was again removed and stored with the first supernatant that was collected.
At this point the number of cells can be counted using an aliquot of Trypan Blue (1/5 dilution). Cells were seeded at a density of 1 million cells per 25 ml of Complete Proliferation Media and grown in Complete Neurocult Proliferation Media for 4 days, at which time they were expanded if the plates appeared too confluent. If expansion was not necessary, the cells were allowed to grow for a few more days prior to harvesting. To expand the primary culture, half the cell suspension was placed in a new dish and 12.5 ml of Complete Proliferation Media was added to each of the initial plate and the expanded plate. After a few days, once most of the spheres had lifted off the dish, the sphere suspension was confluent. At this time, cells were either passaged in growth media, frozen, or plated onto a differentiation plate.
Plating and Differentiation of Striatal Stem Cells: In order to differentiate neurospheres, they must be plated onto a surface coated with Laminin and Poly-D-Lysine. The sphere suspension was collected from a 10 cm dish, placed in a 50 ml tube and centrifuged at 500 rpm for 5 min at 4° C. The supernatant was aspirated and discarded, then 2 ml of Complete Neurocult Proliferation Media was added and the sphere pellet gently triturated until the spheres were resuspended. The sphere suspension was then diluted in Complete Neurocult Proliferation Media to obtain the desired concentration (one 10 cm dish of neurospheres is appropriate for approximately 4 coated chamber slides). 2 ml aliquots of sphere suspension were plated per chamber and after a few hours at 37° C., the medium was changed to Complete Neurocult Differentiation media.
Paraformaldehyde (PFA) Fixing of Cells: Freshly made 4% PFA was used. Media was aspirated out of wells and each well was washed with 2 ml PBS for 3 min. […]

C2C12 myoblasts = assay: C2C12 myoblast differentiation in low serum media with caspase inhibitors (MF20 staining, immunoblot of myogenic markers); type: cell-based, mouse; conditions: 20 μM inhibitor; for myotube formation: C2C12, low serum media, MF20 staining, up to 4 days; for myotube formation / myoblast fusion (mononucleated / fused cells): vs DMSO; for myoblast fusion (mononucleated / fused cells) / expression of MEF2C / accumulation of myogenin: C2C12, low serum; for myoblast fusion (mononucleated / fused cells): 4 days; for expression of MEF2C / accumulation of myogenin: Western blot; for expression of MEF2C: vs control; for accumulation of myogenin: vs control myoblasts
Description: Myoblast culture. C2C12 cell (mouse skeletal muscle myoblast) cultures were grown and maintained in DMEM containing 10% FBS with 50 units/ml penicillin and 50 μg/ml streptomycin (Gibco). Differentiation was induced by incubating cultures in DMEM containing only a low serum concentration (2% horse serum). Caspase activity was measured using a Caspase-3 and Caspase-8 Fluorometric Assay Kit (Pharmingen). […] Control cells were treated with an equivalent amount of vehicle (DMSO). Primary myoblast cells were derived from skeletal muscles of the hind- and fore-limbs from 1-2 day old C57BL/6 wild-type, caspase-3 heterozygous and caspase-3 null mice (Frasch, S. C., et al., (1998) J. Biol. Chem. 273, 8389-8397; Kuida, K., et al., (1996) Nature 384, 368-372) (n=5 for each genotype) as described (Cregan, S. P. et al., (1999) J. Neuro. 19, 7860-7869.). To induce differentiation, primary myoblast cultures were incubated in DMEM containing 5% horse serum.
Protein isolation, immunoblot analyses and immunocytochemistry. Cells from C2C12 and primary myoblast cultures were washed with ice-cold PBS and lysed on ice for 45 minutes in modified-RIPA buffer containing 20 mM NaF, 5 mM Na3VO4 and 10 μg/ml each of aprotinin, leupeptin, pepstatin and PMSF. Total protein was measured using the BCA protein assay (Pierce). Immunoblot analyses were performed as described (Creasy, C. L., & Chernoff, J. (1995) J. Biol. Chem. 270, 21695-21700) using antibodies for MST1, MKK6, p38γ, and p38α (Upstate), p38 and MEF2C (Cell Signaling Technologies), myogenin F5D and myosin heavy chain MF20 mAb (Developmental Hybridoma Bank), and active caspase-3 (Biovision).
C2C12 myoblasts were fixed and stained with anti-MF20 as previously described (Cregan, et al., (1999) J. Neuro. 19, 7860-7869). Primary myoblast cultures were fixed in 4% paraformaldehyde, rinsed three times in PBS containing 0.01% Triton X-100 and stained as above. For both C2C12 and primary myoblast cultures, nuclei were detected by incubating cells for 10 min with 4,6-diamidino-2-phenylindole diluted 1:10000 in PBS.
Cells were fixed after 0, 2 and 4 days of differentiation and stained with the myosin heavy chain antibody MF20. […] In contrast, differentiation was more evident in cells that were incubated with caspase-8 inhibitor, z-LETD.fmk (FIG. 2B bottom panel, C).

myotube formation (C2C12 myoblasts): impaired formation of myotubes
myotube formation (C2C12 myoblasts; listed as Z-DEVD.fmk): drastically attenuated
expression of MEF2C (C2C12 myoblasts): virtually absent
accumulation of myogenin (C2C12 myoblasts): delayed and attenuated accumulation
accumulation of myogenin (C2C12 myoblasts; listed as Z-DEVD.fmk): delayed and is in lower abundance
SMILES: COC(=O)CC[C@H](NC(=O)[C@H](CC(=O)OC)NC(=O)OCc1ccccc1)C(=O)N[C@H](C(=O)N[C@@H](CC(=O)OC)C(=O)CF)C(C)C [z-DEVD.fmk]
glial fibrillary acid protein staining (astrocytes) ([1]; 48 h differentiation): showed no staining for astrocytes
myelin basic protein staining (oligodendricytes) ([1]; 48 h differentiation): did not stain positive for oligodendricytes
nestin staining after differentiation ([1]; 48 h differentiation): retain their undifferentiated lineage as demonstrated by the presence of nestin
cell cycling (nestin staining during proliferation) ([1]; proliferating striatal stem cells): does not have an effect on cell cycling
myoblast fusion (mononucleated / fused cells) (C2C12 myoblasts): remained mononucleated and unfused after 4 days
myoblast fusion (mononucleated / fused cells) (C2C12 myoblasts; listed as Z-DEVD.fmk): lack fusion capacity
expression of MEF2C (C2C12 myoblasts; listed as Z-DEVD.fmk): low levels of MEF2C relative to control cells
